The test system of this data set is Human SK-Hep-1 cancers. As to the kind of experiment: SK-Hep-1 human hepatocellular carcinoma xenograft in nude mice. The data set is classed as in vivo, mouse. The conditions noted are these: at therapeutic doses. Here is the method: Human SK-Hep-1 cancers were transplanted sc. into both flank areas of female nude mice. The treatment started 47 days after transplantation as follows: Group 1: Control; Group 2: Peptide 14, 20 µg/day;. There were 8 animals in each group. The substances were dissolved in 0.1% dimethyl sulfoxide (DMSO) and diluted with 10% propylene glycol in water. Amounts of 0.1 ml of the solutions were injected once daily sc. The controls received vehicle only. Tumors and body weights were measured weekly and tumor volume was calculated. The experiment was terminated on day 135.
(In general: Xenograft models place foreign cells or tissue in a host animal.)

The values that follow come from patent EP2198878A1, “Polypeptide bombesin antagonists” (University Of Miami, priority 2008, dated 2010).

Peptide text beside a SMILES is read from it. * marks the point of attachment. Leuψ(CH2N)ThzNH2 = CC(C)C[C@@H](CN1CSC[C@H]1C(N)=O)N*; Hydrocinnamoyl = O=C(CCc1ccccc1)*

Consider `CC(C)C[C@@H](CN1CSC[C@H]1C(N)=O)NC(=O)[C@H](Cc1c[nH]cn1)NC(=O)CNC(=O)[C@@H](NC(=O)[C@H](C)NC(=O)[C@H](Cc1c[nH]c2ccccc12)NC(=O)[C@H](CCC(N)=O)NC(=O)CCc1ccccc1)C(C)C` [Peptide 14, Hca-Gln-Trp-Ala-Val-Gly-His-Leu-ψ-Tac-NH2] (Hydrocinnamoyl-QWAVGH-{Leuψ(CH2N)ThzNH2}), for which the toxic effects result is given as “no toxic effects”.
